This note sets out measurements from patent publication US20260007758A1, “SO[…]-2 RECEPTOR (SST2R) NON-PEPTIDE DRUG CONJUGATES AND USES THEREOF” (Crinetics Pharmaceuticals, Inc., priority 2024, published 2026).

SMILES strings stand for the structures. *1 amine or outer side, *2 acyl side, *3 side chain or, on linkers, in order; H or OH if unused. Where a SMILES comes first, the peptide text is derived from it. [ ]: non-standard residue; d: D form. The star is where a group is joined. X1 = Cc1cc(F)cc(-c2cnc(*)c(-c3nc4ccc(Cl)cc4[nH]3)c2N2CCC(N)CC2)c1; Dolaproine = CO[C@@H]([C@@H]1CCCN1)[C@@H](C)C(=O)O; Dil = CC[C@H](C)[C@H](NC)[C@@H](CC(=O)O)OC; PABC = O=C(OCc1ccc(N[*:1])cc1)[*:2]; X2 = C[C@@H](N*)[C@@H](O)c1ccccc1; Cit = NC(=O)NCCC[C@H](N)C(=O)O; PEG4 = NCCOCCOCCOCCOCCC(=O)O; NMeV = CN[C@H](C(=O)O)C(C)C; βAla = NCCC(=O)O

What all share (type): cell-based
The target of assay [1] is T1, human somatostatin receptor subtype 2 (Homo sapiens, UniProt P30874).
T1 construct: expressed in transfected cells
T1 sequence (P30874 whole entry): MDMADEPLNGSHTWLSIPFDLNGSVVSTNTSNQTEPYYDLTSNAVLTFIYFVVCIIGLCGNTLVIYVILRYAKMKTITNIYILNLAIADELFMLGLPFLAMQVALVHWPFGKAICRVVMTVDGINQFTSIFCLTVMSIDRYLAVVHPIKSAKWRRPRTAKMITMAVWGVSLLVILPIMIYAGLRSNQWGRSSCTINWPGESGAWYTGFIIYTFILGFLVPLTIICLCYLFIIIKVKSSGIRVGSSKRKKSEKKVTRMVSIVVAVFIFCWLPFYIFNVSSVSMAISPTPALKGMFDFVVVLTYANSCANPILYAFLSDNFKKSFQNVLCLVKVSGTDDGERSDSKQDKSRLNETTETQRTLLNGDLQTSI
In words: Functional assay for SSTR2 agonists (HTRF cAMP). The note with it: CHO-K1 cells stably expressing human SST2; NKH477-stimulated cAMP; 20 min at 37 C; read-out: hSST2 cAMP Avg EC50. In outline:
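Agonist activity read as fall in intracellular cAMP: HTRF 665/620 nm ratio regressed to a cAMP standard curve, EC50 fitted. Stable human SSTR2 CHO-K1 cells exposed 20 min at 37 °C to compound, final concentrations typically 0-10,000 nM.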
On the technique in general: TR-FRET usually uses a lanthanide donor and a delayed reading to cut background.

A further assay deals with T2, SST2 (Homo sapiens, UniProt P30874).
T2 construct: host or cells: PathHunter CHO-K1 SST2 cells
T2 sequence (P30874 whole entry): as above
Description: PathHunter CHO-K1 SST2 Internalization Assay. The note with it: PathHunter CHO-K1 SST2 cells; 90 min at 37 C; luminescence; read-out: Internalization EC50. Summed up:
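Four-parameter nonlinear fits of background-corrected luminescence (duplicate means) gave IC50s. NDCs were serially diluted 1:3 over 11 points from a 10 uM final top concentration and incubated 90 min at 37 C with human SST2 CHO-K1 cells plated 48 h earlier at 2500/well. Beta-Glo read-out developed 60 min at RT.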

In assay [2] the test system is NCI-H524 human small cell lung cancer cells. In words: H524 assay: inhibition of cell proliferation (CellTiter Glo). The note with it: 2 h treatment, washout, additional 70 h incubation. Summed up: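 Proliferation was measured by CellTiter Glo 70 h after a washout that followed a 2 h pulse of NDC. Doses were an 11-point, two-fold dilution series from 1 uM. IC50 was fitted with a four-parameter model to luminescence-based % inhibition relative to control cells.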

As usually defined, the EC50 is the concentration giving half of the maximal effect. As to `CC[C@H](C)[C@@H]([C@@H](CC(=O)N1CCC[C@H]1[C@H](OC)[C@@H](C)C(=O)N[C@H](C)[C@@H](O)c1ccccc1)OC)N(C)C(=O)[C@@H](NC(=O)[C@H](C(C)C)N(C)C(=O)OCc1ccc(NC(=O)[C@H](CCCNC(N)=O)NC(=O)[C@@H](NC(=O)CCOCCC(=O)NCCNc2ncc(-c3cc(C)cc(F)c3)c(N3CCC(N)CC3)c2-c2nc3ccc(Cl)cc3[nH]2)C(C)C)c(OCCN)c1)C(C)C` [Compound 10], the figures for the EC50 (in assay [1]; on SST2; in assay [2]) were 0.21 nM, 2.7 nM and 0.76 nM, respectively.

With `CC[C@H](C)[C@@H]([C@@H](CC(=O)N1CCC[C@H]1[C@H](OC)[C@@H](C)C(=O)N[C@H](C)[C@@H](O)c1ccccc1)OC)N(C)C(=O)[C@@H](NC(=O)[C@H](C(C)C)N(C)C(=O)OCc1ccc(NC(=O)[C@H](CCCNC(N)=O)NC(=O)[C@@H](NC(=O)CCOCCC(=O)NCCNc2ncc(-c3cc(C)cc(F)c3)c(N3CCC(N)CC3)c2-c2nc3ccc(Cl)cc3[nH]2)C(C)C)c(OCCO)c1)C(C)C` [Compound 12], the figures for the EC50 (in assay [1]; on SST2; in assay [2]) were 0.24 nM, 6.9 nM and 3.9 nM, respectively.

Take `CC[C@H](C)[C@@H]([C@@H](CC(=O)N1CCC[C@H]1[C@H](OC)[C@@H](C)C(=O)N[C@H](C)[C@@H](O)c1ccccc1)OC)N(C)C(=O)[C@@H](NC(=O)[C@H](C(C)C)N(C)C(=O)OCc1ccc(NC(=O)[C@H](CCCNC(N)=O)NC(=O)[C@@H](NC(=O)[C@H](CCC(=O)O)NC(=O)CCOCCC(=O)NCCNc2ncc(-c3cc(C)cc(F)c3)c(N3CCC(N)CC3)c2-c2nc3ccc(Cl)cc3[nH]2)C(C)C)cc1C(=O)NOC)C(C)C` [Compound 89]: the values for the EC50 (in assay [1]; on SST2; in assay [2]) were 0.57 nM, 3.6 nM and 1100 nM, respectively.

Consider `CC[C@H](C)[C@@H]([C@@H](CC(=O)N1CCC[C@H]1[C@H](OC)[C@@H](C)C(=O)N[C@H](C)[C@@H](O)c1ccccc1)OC)N(C)C(=O)[C@@H](NC(=O)[C@H](C(C)C)N(C)C(=O)OCc1ccc(NC(=O)[C@H](CCCNC(N)=O)NC(=O)[C@@H](NS(=O)(=O)C[C@H](C)NC(=O)CCOCCC(=O)NCCNc2ncc(-c3cc(C)cc(F)c3)c(N3CCC(N)CC3)c2-c2nc3ccc(Cl)cc3[nH]2)C(C)C)c(O[C@@H]2O[C@H](C(=O)NCC(=O)O)[C@@H](O)[C@H](O)[C@H]2O)c1)C(C)C` [Compound 214], for which the EC50 in assay [1] came to 0.11 nM; on SST2, 4 nM; in assay [2], 8.9 nM.

As to `CC[C@H](C)[C@@H]([C@@H](CC(=O)N1CCC[C@H]1[C@H](OC)[C@@H](C)C(=O)N[C@H](C)[C@@H](O)c1ccccc1)OC)N(C)C(=O)[C@@H](NC(=O)[C@H](C(C)C)N(C)C(=O)OCc1ccc(NC(=O)[C@H](CCCNC(N)=O)NC(=O)[C@@H](NC(=O)CCOCCOCCOCCOCCNC(=O)CCNc2ncc(-c3cc(C)cc(F)c3)c(N3CCC(N)CC3)c2-c2nc3ccc(Cl)cc3[nH]2)C(C)C)cc1)C(C)C` [Compound 196] ({X1-βAla-PEG4}-V[Cit][PABC][NMeV]V[Dil][Dolaproine]-X2), the EC50 in assay [1] was 0.29 nM; at SST2 it was 8.6 nM; in assay [2] it was 28 nM.

`CC[C@H](C)[C@@H]([C@@H](CC(=O)N1CCC[C@H]1[C@H](OC)[C@@H](C)C(=O)N[C@H](C)[C@@H](O)c1ccccc1)OC)N(C)C(=O)[C@@H](NC(=O)[C@H](C(C)C)N(C)C(=O)OCc1ccc(NC(=O)[C@H](CCCNC(N)=O)NC(=O)[C@@H](NC(=O)CCOCCC(=O)N(C)CC(=O)NCCNc2ncc(-c3cc(C)cc(F)c3)c(N3CCC(N)CC3)c2-c2nc3ccc(Cl)cc3[nH]2)C(C)C)c(O[C@@H]2O[C@H](C(=O)O)[C@@H](O)[C@H](O)[C@H]2O)c1)C(C)C` [Compound 133]: the EC50 came out at 0.097 nM in assay [1], 5.3 nM on SST2 and 1900 nM in assay [2].

For the compound `CC[C@H](C)[C@@H]([C@@H](CC(=O)N1CCC[C@H]1[C@H](OC)[C@@H](C)C(=O)N[C@H](C)[C@@H](O)c1ccccc1)OC)N(C)C(=O)[C@@H](NC(=O)[C@H](C(C)C)N(C)C(=O)OCc1ccc(NC(=O)[C@H](CCCNC(N)=O)NC(=O)[C@@H](NC(=O)c2cc(NCCOCCC(=O)NCCNc3ncc(-c4cc(C)cc(F)c4)c(N4CCC(N)CC4)c3-c3nc4ccc(Cl)cc4[nH]3)cc(C(=O)NCC(=O)O)c2)C(C)C)cc1)C(C)C` [Compound 185], the values for the EC50 (in assay [1]; on SST2; in assay [2]) were 0.19 nM, 2.6 nM and 1100 nM, respectively.

Consider `CC[C@H](C)[C@@H]([C@@H](CC(=O)N1CCC[C@H]1[C@H](OC)[C@@H](C)C(=O)N[C@H](C)[C@@H](O)c1ccccc1)OC)N(C)C(=O)[C@@H](NC(=O)[C@H](C(C)C)N(C)C(=O)OCc1ccc(NC(=O)[C@H](CCCNC(N)=O)NC(=O)[C@@H](NC(=O)c2cc(NCCOCCOCCOCCC(=O)NCCNc3ncc(-c4cc(C)cc(F)c4)c(N4CCC(N)CC4)c3-c3nc4ccc(Cl)cc4[nH]3)cc(C(=O)OC)c2)C(C)C)cc1)C(C)C` [Compound 178], for which the results for the EC50 (in assay [1]; on SST2; in assay [2]) were 0.27 nM, 5.6 nM and 620 nM, respectively.

As for `CC[C@H](C)[C@@H]([C@@H](CC(=O)N1CCC[C@H]1[C@H](OC)[C@@H](C)C(=O)N[C@H](C)[C@@H](O)c1ccccc1)OC)N(C)C(=O)[C@@H](NC(=O)[C@H](C(C)C)N(C)C(=O)OCc1ccc(NC(=O)[C@H](CCCNC(N)=O)NC(=O)[C@@H](NC(=O)CCOCCC(=O)NCCNc2ncc(-c3cc(C)cc(F)c3)c(N3CCC(N)CC3)c2-c2nc3ccc(Cl)cc3[nH]2)C(C)C)c(OC)c1)C(C)C` [Compound 11], the 50% effective concentration (EC50) worked out at 0.33 nM in assay [1], 10 nM on SST2 and 14 nM in assay [2].

`CC[C@H](C)[C@@H]([C@@H](CC(=O)N1CCC[C@H]1[C@H](OC)[C@@H](C)C(=O)N[C@H](C)[C@@H](O)c1ccccc1)OC)N(C)C(=O)[C@@H](NC(=O)[C@H](C(C)C)N(C)C(=O)OCc1ccc(NC(=O)[C@H](C)NC(=O)[C@@H](NC(=O)CCOCCC(=O)NCCNc2ncc(-c3cc(C)cc(F)c3)c(N3CCC(N)CC3)c2-c2nc3ccc(Cl)cc3[nH]2)C(C)C)c(O[C@@H]2O[C@H](C(=O)NCC(=O)O)[C@@H](O)[C@H](O)[C@H]2O)c1)C(C)C` [Compound 33]: the EC50 in assay [1] stood at 0.15 nM; on SST2 it was 2.5 nM; in assay [2] it was 7 nM.

With `CC[C@H](C)[C@@H]([C@@H](CC(=O)N1CCC[C@H]1[C@H](OC)[C@@H](C)C(=O)N[C@H](C)[C@@H](O)c1ccccc1)OC)N(C)C(=O)[C@@H](NC(=O)[C@H](C(C)C)N(C)C(=O)OCc1ccc(NC(=O)[C@H](C)NC(=O)[C@@H](NC(=O)CCOCCC(=O)NCCNc2ncc(-c3cc(C)cc(F)c3)c(N3CCC(N)CC3)c2-c2nc3ccc(Cl)cc3[nH]2)C(C)C)c(OCC(=O)O)c1)C(C)C` [Compound 13], the EC50 in assay [1] was 0.16 nM; on SST2, 3.2 nM; in assay [2], 11 nM.

`CC[C@H](C)[C@@H]([C@@H](CC(=O)N1CCC[C@H]1[C@H](OC)[C@@H](C)C(=O)N[C@H](C)[C@@H](O)c1ccccc1)OC)N(C)C(=O)[C@@H](NC(=O)[C@H](C(C)C)N(C)C(=O)OCc1ccc(NC(=O)[C@H](CCCNC(N)=O)NC(=O)[C@@H](NC(=O)[C@H](CCC(=O)O)NC(=O)CCOCCC(=O)NCCNc2ncc(-c3cc(C)cc(F)c3)c(N3CCC(N)CC3)c2-c2nc3cc(F)cc(OC)c3[nH]2)C(C)C)cc1C(=O)NCCN)C(C)C` [Compound 79]: the figures for the EC50 (in assay [1]; at SST2; in assay [2]) were 0.12 nM, 5.1 nM and 7.7 nM, respectively.

In the case of `CC[C@H](C)[C@@H]([C@@H](CC(=O)N1CCC[C@H]1[C@H](OC)[C@@H](C)C(=O)N[C@H](C)[C@@H](O)c1ccccc1)OC)N(C)C(=O)[C@@H](NC(=O)[C@H](C(C)C)N(C)C(=O)OCc1ccc(NC(=O)[C@H](CCCNC(N)=O)NC(=O)[C@@H](NC(=O)[C@H](CCC(=O)O)NC(=O)CCOCCC(=O)NCCNc2ncc(-c3cc(C)cc(F)c3)c(N3CCC(N)CC3)c2-c2nc3ccc(Cl)cc3[nH]2)C(C)C)cc1C(=O)NOCCN)C(C)C` [Compound 90], the EC50 in assay [1] was found to be 0.66 nM; on SST2 it was 5.5 nM; in assay [2], 480 nM.

As for `CC[C@H](C)[C@@H]([C@@H](CC(=O)N1CCC[C@H]1[C@H](OC)[C@@H](C)C(=O)N[C@H](C)[C@@H](O)c1ccccc1)OC)N(C)C(=O)[C@@H](NC(=O)[C@H](C(C)C)N(C)C(=O)OCc1ccc(NC(=O)[C@H](C)NC(=O)[C@@H](NC(=O)CCOCCC(=O)NCCNc2ncc(-c3cc(C)cc(F)c3)c(N3CCC(N)CC3)c2-c2nc3ccc(Cl)cc3[nH]2)C(C)C)c(O[C@@H]2O[C@H](C(N)=O)[C@@H](O)[C@H](O)[C@H]2O)c1)C(C)C` [Compound 34], the EC50 in assay [1] came out at 0.12 nM; on SST2 it was 4.4 nM; in assay [2], 1.6 nM.

`CC[C@H](C)[C@@H]([C@@H](CC(=O)N1CCC[C@H]1[C@H](OC)[C@@H](C)C(=O)N[C@H](C)[C@@H](O)c1ccccc1)OC)N(C)C(=O)[C@@H](NC(=O)C(C(C)C)N(C)C(=O)OCc1ccc(NC(=O)[C@H](CCCNC(N)=O)NC(=O)[C@@H](NC(=O)CCOCCC(=O)NCCNc2ncc(-c3cc(C)cc(F)c3)c(N3CCC(N)CC3)c2-c2nc3ccc(Cl)cc3[nH]2)C(C)C)c(O[C@@H]2O[C@H](C(=O)N3CCCCC3)[C@@H](O)[C@H](O)[C@H]2O)c1)C(C)C` (stereo partly drawn) [Compound 228]: the EC50 in assay [1] came to 0.26 nM; on SST2, 10 nM; in assay [2], 36 nM.
